Experimental data as given in patent US20020051978A1, “Methods and compositions for the identification, assessment, prevention and therapy of human cancers” (priority 2000, published 2002).
Where “and” joins values, the source holds several entries; their conditions need not be identical. Equal entries are not always repeated. Where two headings read alike, the source gives them in different places.

Columns and labels:
[1] = test system: 60 cancer cell lines (NCI 60 cancer cell line series); conditions: cited from earlier work
[2] = test system: 60 cancer cell lines (NCI 60 cancer cell line series); test: NCI-DTP in vitro cancer screen, sulforhodamine B (SRB) growth inhibition, 48 hour exposure; assay type: cell-based, human; set-up: key to sensitivity class Ovarian OVCAR-8 CL6005 / sensitivity class Ovarian SK-OV-3 CL6011 / sensitivity class Prostate DU-145 CL11003 / sensitivity class NSCLC NCI-H522 CL1003 / sensitivity class Ovarian IGROV1 CL6010 / sensitivity class Ovarian OVCAR-4 CL6002 / sensitivity class Prostate PC-3(I) CL11001 / sensitivity class Renal A498 CL9013 / sensitivity class Renal SN12C CL9008: sensitivity class: 1 = Low, 2 = Medium, 3 = High
How it was run: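 Values come from the NCI-DTP screen database: -log GI50, the concentration giving 50% growth inhibition, derived from SRB cell-mass dose-response curves. Each line seeded at its own density, treated day 1 at five ten-fold-spaced doses in duplicate wells, stained after 48 h.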

For CN(Cc1cnc2nc(N)nc(N)c2n1)c1ccc(C(=O)N[C@@H](CCC(=O)O)C(=O)O)cc1 [Methotrexate], the “-Log (GI50)” value ([1]; Breast MCF7/ADRr (CL5002)) is given as 7.3 and 7.0, the “-Log (GI50)” value ([1]; CNS SF-268 CL12014) is given as 7.5 and 7.3 and the “-Log (GI50)” value ([1]; Colon COLO-250 CL4010) is given as 6.2 and 6.0. The “-Log (GI50)” value ([1]; Colon HCC-2998 (CL4002)) was 7.0 and 6.9, the “-Log (GI50)” value ([1]; Colon HT29(I) CL4001) was 7.7 and 7.5 and the “-Log (GI50)” value ([1]; Colon KM12 (CL4017)) was 7.4 and 7.3. The “-Log (GI50)” value ([1]; Colon SW-620 (CL4009)) was 7.2 and 7.5, the “-Log (GI50)” value ([1]; Leukemia CCRF-CEM(I) (CL7003)) was 7.4 and 7.5 and the “-Log (GI50)” value ([1]; Leukemia HL-60(I) (CL7008)) was 7.4. For the same molecule, the “-Log (GI50)” value ([1]; Leukemia MOLT-4 (CL7006)) was 7.6 and 7.5, the “-Log (GI50)” value ([1]; Leukemia RPMI-8226(I) (CL7010)) was 6.9 and 7.1 and the “-Log (GI50)” value ([1]; Melanoma M14 (CL10014)) was 7.5. For the same molecule, the “-Log (GI50)” value ([1]; Melanoma MALME-3M CL10002) was 5.4 and 5.5, the “-Log (GI50)” value ([1]; Melanoma SK-MEL-5 (CL10007)) was 7.2 and 7.0 and the “-Log (GI50)” value ([1]; Melanoma SK-MEL-28 (CL10008)) was 5.3 and 5.4. For the same molecule, the “-Log (GI50)” value ([1]; NSCLC EKVX (CL1008)) was 5.0, the “-Log (GI50)” value ([1]; NSCLC HOP-92 (CL1029)) was 5.1 and the “-Log (GI50)” value ([1]; NSCLC NCI-H332M CL1017) was 6.4 and 6.3. The “-Log (GI50)” value ([1]; Prostate DU-145 CL11003) was 7.6 and 7.3, the “-Log (GI50)” value ([1]; Renal 786-O CL9018) was 7.5 and the “classification of cell line as Low(1), Medium(2) or High(3) sensitivity to compound” value (“classification of cell line” for short) ([2]; Breast BT-549 (CL5013)) was 1. The “classification of cell line” value ([2]; Breast HS-578T CL5006) was 1, the “classification of cell line” value ([2]; Breast MCF7/ADRr (CL5002)) was 2 and the “classification of cell line” value ([2]; Breast MDA-MB-231 CL5005) was 1. For the same molecule, the “classification of cell line” value ([2]; Breast T-47D (CL5014)) was 1, the “classification of cell line” value ([2]; CNS SF-268 CL12014) was 2 and the “classification of cell line” value ([2]; CNS SF-295 CL12015) was 3. For the same molecule, the “classification of cell line” value ([2]; CNS SF-539 CL12016) was 3, the “classification of cell line” value ([2]; CNS U251(I) CL12009) was 2 and the “classification of cell line” value ([2]; Colon COLO-250 CL4010) was 2. The “classification of cell line” value ([2]; Colon HCC-2998 (CL4002)) was 2, the “classification of cell line” value ([2]; Colon HCT-15 CL4015) was 3 and the “classification of cell line” value ([2]; Colon HCT-116 (CL4003)) was 3. For the same molecule, the “classification of cell line” value ([2]; Colon KM12 (CL4017)) was 2, the “classification of cell line” value ([2]; Leukemia HL-60(I) (CL7008)) was 2 and the “classification of cell line” value ([2]; Leukemia K562(I) CL7005) was 3. The “classification of cell line” value ([2]; Leukemia RPMI-8226(I) (CL7010)) was 2, the “classification of cell line” value ([2]; Melanoma LOX IMVI CL10001) was 3 and the “classification of cell line” value ([2]; Melanoma SK-MEL-2 (CL10005)) was 1. For the same molecule, the “classification of cell line” value ([2]; Melanoma SK-MEL-5 (CL10007)) was 2, the “classification of cell line” value ([2]; Melanoma SK-MEL-28 (CL10008)) was 1 and the “classification of cell line” value ([2]; Melanoma UACC-62 (CL10020)) was 3. The “classification of cell line” value ([2]; NSCLC A549/ATCC (CL1004)) was 3, the “classification of cell line” value ([2]; NSCLC EKVX (CL1008)) was 1 and the “classification of cell line” value ([2]; NSCLC HOP-62 (CL1026)) was 2. For the same molecule, the “classification of cell line” value ([2]; NSCLC HOP-92 (CL1029)) was 1, the “classification of cell line” value ([2]; NSCLC NCI-H226 CL1013) was 1 and the “sensitivity class NSCLC NCI-H23(I) CL1001” value ([2]; cell line NSCLC NCI-H23(I), CL1001) was 2. The “sensitivity class NSCLC NCI-H332M CL1017” value ([2]; cell line NSCLC NCI-H332M, CL1017) was 2, the “sensitivity class NSCLC NCI-H460 CL1021” value ([2]; cell line NSCLC NCI-H460, CL1021) was 3 and the “sensitivity class Ovarian IGROV1 CL6010” value ([2]; cell line Ovarian IGROV1, CL6010) was 2. For the same molecule, the “sensitivity class Ovarian OVCAR-3 CL6001” value ([2]; cell line Ovarian OVCAR-3, CL6001) was 2, the “sensitivity class Ovarian OVCAR-4 CL6002” value ([2]; cell line Ovarian OVCAR-4, CL6002) was 1 and the “sensitivity class Ovarian OVCAR-5 CL6003” value ([2]; cell line Ovarian OVCAR-5, CL6003) was 2. For the same molecule, the “sensitivity class Prostate DU-145 CL11003” value ([2]; cell line Prostate DU-145, CL11003) was 2, the “sensitivity class Renal A498 CL9013” value ([2]; cell line Renal A498, CL9013) was 1 and the “sensitivity class Renal ACHN CL9023” value ([2]; cell line Renal ACHN, CL9023) was 2. The “sensitivity class Renal RXF-393 CL9016” value ([2]; cell line Renal RXF-393, CL9016) was 1, the “sensitivity class Renal SN12C CL9008” value ([2]; cell line Renal SN12C, CL9008) was 3 and the “sensitivity class Renal TK10 CL9024” value ([2]; cell line Renal TK10, CL9024) was 1. The “sensitivity class Renal UO-31 CL9004” value ([2]; cell line Renal UO-31, CL9004) was 2.
